Molecular target: T1, human PAH with the R408W mutation (A375 R408W cells) (Homo sapiens, UniProt P00439, R408W)
T1 construct: expressed in transfected cells
T1 sequence (P00439 1-452 R408W): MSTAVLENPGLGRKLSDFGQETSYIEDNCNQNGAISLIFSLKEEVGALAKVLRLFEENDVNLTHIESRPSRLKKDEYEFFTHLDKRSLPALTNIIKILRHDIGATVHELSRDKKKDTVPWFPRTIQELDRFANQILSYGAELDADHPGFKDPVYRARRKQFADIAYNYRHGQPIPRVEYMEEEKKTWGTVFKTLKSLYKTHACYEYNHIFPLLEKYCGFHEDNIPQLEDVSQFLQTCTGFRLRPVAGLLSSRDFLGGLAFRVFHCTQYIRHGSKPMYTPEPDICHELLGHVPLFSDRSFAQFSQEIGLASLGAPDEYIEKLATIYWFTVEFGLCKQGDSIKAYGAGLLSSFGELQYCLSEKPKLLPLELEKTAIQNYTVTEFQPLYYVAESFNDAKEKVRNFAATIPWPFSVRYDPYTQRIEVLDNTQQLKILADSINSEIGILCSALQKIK
Experiment: Cell Based Phenylalanine Flux Assay
Settings: 24 hrs with compound, then 20 μM sepiapterin and 800 μM 13C9,15N-Phenylalanine for 4 hours, 13C-Tyrosine by LC-MS, average where tested multiple times
Method in brief: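 Puromycin-selected A375 line, lentiviral hPAH R408W; cmpd 24 h, 37 °C, 5% CO2, 0.5% DMSO; then 20 μM sepiapterin + 800 μM 13C9,15N-Phe, 4 h; media extracted in 80% MeCN; 13C-Tyr by LC-MS; AC50 from 10-pt curves.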

[1] = A375 cells expressing R408W PAH

| SMILES | AC50 (A375 R408W cells) [nM] | AC50 [1] [nM] |
| --- | --- | --- |
| CNC(C)(C)c1nc(C(F)F)c(C(=O)N2CCc3[nH]cnc3[C@H]2c2nc3cc(F)ccc3o2)o1 [Example 221, (S)-(4-(difluoromethyl)-2-(2-(methylamino)propan-2-yl)oxazol-5-yl)(4-(5-fluorobenzo[d]oxazol-2-yl)-6,7-dihydro-1H-imidazo[4,5-c]pyridin-5(4H)-yl)methanone] | 500 to 1000 |  |
| Nc1ccc2c(C(=O)N3CCc4[nH]cnc4C3c3nc4cc(F)ccc4o3)cnn2c1 (stereo not drawn) |  | 1000 to 5000 |
| Cn1cncc1-c1nc(C(F)F)c(C(=O)N2CCc3[nH]cnc3[C@@H]2c2nc3ccccc3o2)o1 [Example 763, (R)-(4-(benzo[d]oxazol-2-yl)-6,7-dihydro-1H-imidazo[4,5-c]pyridin-5(4H)-yl)(4-(difluoromethyl)-2-(1-methyl-1H-imidazol-5-yl)oxazol-5-yl)methanone] | 1000 to 5000 |  |
| CC(C)(O)c1ncc(C(=O)N2CCc3[nH]cnc3C2c2nc3ccc(F)cc3o2)o1 (stereo not drawn) |  | 1000 to 5000 |
| COC(=O)Nc1ccc2c(C(=O)N3CCc4[nH]cnc4C3c3nc4cc(F)ccc4o3)cnn2c1 (stereo not drawn) |  | 1000 to 5000 |
| Cc1nc(C(C)O)oc1C(=O)N1CCc2[nH]cnc2C1c1nc2ccc(F)cc2o1 (stereo not drawn) |  | ≥ 5000 |
| CC(C)(O)C1CCN(c2ccc3c(C(=O)N4CCc5[nH]cnc5C4c4nc5cc(F)ccc5o4)cnn3c2)CC1 (stereo not drawn) [listing 1 of 2 here] |  | ≥ 5000 |
| Cc1ccc2nc([C@H]3c4nc[nH]c4CCN3C(=O)c3oc(C(C)(C)O)nc3C(F)F)oc2c1 [Example 316, (R)-(4-(difluoromethyl)-2-(2-hydroxypropan-2-yl)oxazol-5-yl)(4-(6-methylbenzo[d]oxazol-2-yl)-6,7-dihydro-1H-imidazo[4,5-c]pyridin-5(4H)-yl)methanone] | 1000 to 5000 |  |
| O=C(c1ocnc1C(F)F)N1CCc2[nH]cnc2[C@@H]1c1nc2ccc(F)c(F)c2o1 [Example 306, (R)-(4-(6,7-difluorobenzo[d]oxazol-2-yl)-6,7-dihydro-1H-imidazo[4,5-c]pyridin-5(4H)-yl)(4-(difluoromethyl)oxazol-5-yl)methanone] | 1000 to 5000 |  |
| O=C(c1ccn(CC(F)F)n1)N1CCc2[nH]cnc2C1c1nc2c(F)cccc2o1 (stereo not drawn) |  | 1000 to 5000 |
| COCc1nnc(C(=O)N2CCc3[nH]cnc3C2c2nc3cc(F)ccc3o2)o1 (stereo not drawn) |  | ≥ 5000 |
| CC(C)(O)C1CCN(c2ccc3c(C(=O)N4CCc5[nH]cnc5C4c4nc5cc(F)ccc5o4)cnn3c2)CC1 (stereo not drawn) [listing 2 of 2 here] |  | 1000 to 5000 |
| O=C(c1cnn2cc(N3CCC(O)CC3)ccc12)N1CCc2[nH]cnc2C1c1nc2cc(F)ccc2o1 (stereo not drawn) |  | 1000 to 5000 |
| O=C(CCc1nccs1)N1CCc2[nH]cnc2C1c1nc2ccc(F)cc2o1 (stereo not drawn) |  | ≥ 5000 |
| Cn1nc(Br)nc1C(=O)N1CCc2[nH]cnc2[C@@H]1c1nc2cccc(F)c2o1 [Example 474, (R)-(3-bromo-1-methyl-1H-1,2,4-triazol-5-yl)(4-(7-fluorobenzo[d]oxazol-2-yl)-6,7-dihydro-1H-imidazo[4,5-c]pyridin-5(4H)-yl)methanone] | 1000 to 5000 |  |
| Cc1ccc2oc([C@@H]3c4nc[nH]c4CCN3C(=O)c3nnc(-c4ccn(C)n4)o3)nc2c1 [Example 389, (S)-(5-(1-methyl-1H-pyrazol-3-yl)-1,3,4-oxadiazol-2-yl)(4-(5-methylbenzo[d]oxazol-2-yl)-6,7-dihydro-1H-imidazo[4,5-c]pyridin-5(4H)-yl)methanone] | ≤ 500 |  |
| O=C(c1oc(-c2ccccn2)nc1C(F)F)N1CCc2[nH]cnc2[C@H]1c1nc2ccccc2o1 [Example 740, (S)-(4-(benzo[d]oxazol-2-yl)-6,7-dihydro-1H-imidazo[4,5-c]pyridin-5(4H)-yl)(4-(difluoromethyl)-2-(pyridin-2-yl)oxazol-5-yl)methanone] | ≤ 500 |  |
| Cn1cc(-c2nc(C(F)F)c(C(=O)N3CCc4[nH]cnc4[C@H]3c3nc4ccccc4o3)o2)cn1 [Example 760, (S)-(4-(benzo[d]oxazol-2-yl)-6,7-dihydro-1H-imidazo[4,5-c]pyridin-5(4H)-yl)(4-(difluoromethyl)-2-(1-methyl-1H-pyrazol-4-yl)oxazol-5-yl)methanone] | ≤ 500 |  |

| SMILES | AC50 (A375 R408W cells) [nM] | AC50 [1] [nM] |
| --- | --- | --- |
| Cc1cccc2nc(C3c4nc[nH]c4CCN3C(=O)c3ncnn3C)oc12 (stereo not drawn) |  | 1000 to 5000 |
| O=C(CC1CC1)N1CCc2[nH]cnc2[C@H]1c1nc2cc(F)ccc2o1 [Example 37, (S)-2-cyclopropyl-1-(4-(5-fluorobenzo[d]oxazol-2-yl)-6,7-dihydro-1H-imidazo[4,5-c]pyridin-5(4H)-yl)ethanone] | 1000 to 5000 |  |
| CN(C)Cc1ccc2c(C(=O)N3CCc4[nH]cnc4C3c3nc4cc(F)ccc4o3)cnn2c1 (stereo not drawn) |  | 1000 to 5000 |
| Cc1cccc2oc([C@@H]3c4nc[nH]c4CCN3C(=O)c3ncnn3C)nc12 [Example 901, (S)-(1-methyl-1H-1,2,4-triazol-5-yl)(4-(4-methylbenzo[d]oxazol-2-yl)-6,7-dihydro-1H-imidazo[4,5-c]pyridin-5(4H)-yl)methanone] | 500 to 1000 |  |
| Cc1cccc2nc([C@H]3c4nc[nH]c4CCN3C(=O)c3cc(C(F)F)nn3C)oc12 [Example 736] | 1000 to 5000 |  |
| O=C(c1oc(COC(F)(F)F)nc1C(F)F)N1CCc2[nH]cnc2[C@@H]1c1nc2cc(F)ccc2o1 [Example 116, (R)-(4-(difluoromethyl)-2-((trifluoromethoxy)methyl)oxazol-5-yl)(4-(5-fluorobenzo[d]oxazol-2-yl)-6,7-dihydro-1H-imidazo[4,5-c]pyridin-5(4H)-yl)methanone] | 1000 to 5000 |  |
| COc1ccc(-c2nc(C(F)F)c(C(=O)N3CCc4[nH]cnc4[C@@H]3c3nc4cccc(F)c4o3)o2)nc1 [Example 615, (R)-(4-(difluoromethyl)-2-(5-methoxypyridin-2-yl)oxazol-5-yl)(4-(7-fluorobenzo[d]oxazol-2-yl)-6,7-dihydro-1H-imidazo[4,5-c]pyridin-5(4H)-yl)methanone] | ≤ 500 |  |
| Cc1ccc(F)c2nc([C@H]3c4nc[nH]c4CCN3C(=O)c3oc(C(C)(C)O)nc3C(F)F)oc12 [Example 724, (R)-(4-(difluoromethyl)-2-(2-hydroxypropan-2-yl)oxazol-5-yl)(4-(4-fluoro-7-methylbenzo[d]oxazol-2-yl)-6,7-dihydro-1H-imidazo[4,5-c]pyridin-5(4H)-yl)methanone] | 1000 to 5000 |  |
| Cn1cnc(-c2nc(C(F)F)c(C(=O)N3CCc4[nH]cnc4[C@H]3c3nc4cccc(F)c4o3)o2)c1 [Example 892, (S)-(4-(difluoromethyl)-2-(1-methyl-1H-imidazol-4-yl)oxazol-5-yl)(4-(7-fluorobenzo[d]oxazol-2-yl)-1,4,6,7-tetrahydro-5H-imidazo[4,5-c]pyridin-5-yl)methanone] | ≤ 500 |  |
| O=C(c1ocnc1CC(F)F)N1CCc2[nH]cnc2[C@H]1c1nc2cccc(F)c2o1 [Example 863, (S)-(4-(2,2-difluoroethyl)oxazol-5-yl)(4-(7-fluorobenzo[d]oxazol-2-yl)-6,7-dihydro-1H-imidazo[4,5-c]pyridin-5(4H)-yl)methanone] | ≤ 500 |  |
| O=C(c1cn[nH]c1C(F)F)N1CCc2[nH]cnc2C1c1nc2cc(F)ccc2o1 (stereo not drawn) |  | 1000 to 5000 |
| CN1CCN(c2ccc3c(C(=O)N4CCc5[nH]cnc5[C@H]4c4nc5cccc(F)c5o4)cnn3c2)CC1 [Example 363, (S)-(4-(7-fluorobenzo[d]oxazol-2-yl)-6,7-dihydro-1H-imidazo[4,5-c]pyridin-5(4H)-yl)(6-(4-methylpiperazin-1-yl)pyrazolo[1,5-a]pyridin-3-yl)methanone] | ≤ 500 |  |
| CC(C)(O)c1nnc(C(=O)N2CCc3[nH]cnc3C2c2nc3cc(F)ccc3o2)o1 (stereo not drawn) |  | ≥ 5000 |
| O=C(c1ocnc1C(F)F)N1CCc2[nH]cnc2[C@@H]1c1nc2cc(OC(F)(F)F)ccc2o1 [Example 353, (R)-(4-(difluoromethyl)oxazol-5-yl)(4-(5-(trifluoromethoxy)benzo[d]oxazol-2-yl)-6,7-dihydro-1H-imidazo[4,5-c]pyridin-5(4H)-yl)methanone] | ≤ 500 |  |
| CC(C)(O)c1nc(C(F)F)c(C(=O)N2CCc3[nH]cnc3[C@@H]2c2nc3cc(OC(F)(F)F)ccc3o2)o1 [Example 352, (R)-(4-(difluoromethyl)-2-(2-hydroxypropan-2-yl)oxazol-5-yl)(4-(5-(trifluoromethoxy)benzo[d]oxazol-2-yl)-6,7-dihydro-1H-imidazo[4,5-c]pyridin-5(4H)-yl)methanone] | 500 to 1000 |  |
| O=C(c1ccnn1C(F)(F)F)N1CCc2[nH]cnc2[C@H]1c1nc2c(F)cccc2o1 [Example 293, (S)-(4-(4-fluorobenzo[d]oxazol-2-yl)-6,7-dihydro-1H-imidazo[4,5-c]pyridin-5(4H)-yl)(1-(trifluoromethyl)-1H-pyrazol-5-yl)methanone] | ≤ 500 |  |
| Cn1cc(-c2nc(C(F)F)c(C(=O)N3CCc4[nH]cnc4[C@@H]3c3nc4cccc(F)c4o3)o2)cn1 [Example 635, (R)-(4-(difluoromethyl)-2-(1-methyl-1H-pyrazol-4-yl)oxazol-5-yl)(4-(7-fluorobenzo[d]oxazol-2-yl)-6,7-dihydro-1H-imidazo[4,5-c]pyridin-5(4H)-yl)methanone] | 500 to 1000 |  |
| O=C(c1cnn2cc(N3CCOCC3)c(Cl)cc12)N1CCc2[nH]cnc2[C@H]1c1nc2cc(F)ccc2o1 [Example 175, (S)-(5-chloro-6-morpholinopyrazolo[1,5-a]pyridin-3-yl)(4-(5-fluorobenzo[d]oxazol-2-yl)-6,7-dihydro-1H-imidazo[4,5-c]pyridin-5(4H)-yl)methanone] | 500 to 1000 |  |

— US20250171437A1 (Agios Pharmaceuticals,Inc., priority 2022, published 2025)
